Reference: patent US20230270677A1, “LONG-ACTING THERAPEUTIC AGENT COMBINATIONS AND METHODS THEREOF” (University of Washington, priority 2020, published 2023)
Where two headings read alike, the source gives them in different places.

Legend:
[1] = Plasma pharmacokinetics after single subcutaneous dose in non-human primates (DcNP or free drug combination); details: for half-life: monkey, sc
Procedure: To evaluate whether presenting the three drugs—e.g., DTG-3TC-TFV, LPV-RTV-TFV, EFV-LPV-TFV, ATZ-RTV-TFV or 4 drugs—e.g., LPV-RTV-3TC-TFV in a combination nanosuspension using DcNP platform could provide long-acting plasma and intracellular drug exposure, macaques were subcutaneously administered with either DcNP formulated or soluble free drug combination. The free-drug combination (control) arm consisted of two groups. In the control group, 2-4 macaques were administered at an indicated single subcutaneous dose where equivalent dug combinations are dissolved in DMSO and diluted with water.
Whole blood in EDTA tubes was immediately centrifuged and plasma was removed and frozen at −80° C. until LC-MS/MS analysis.
Plasma drug concentrations were reported in units of nM. Non-compartmental parameters were estimated from plasma profiles for free and DcNP formulations using Phoenix WinNonlin (Certara, Princeton, N.J.). The following non-compartmental parameters were estimated: area under the plasma concentration-time curve (AUC) extrapolated to infinity; terminal half-life (t1/2); apparent clearance (CL/F); and mean body residence time (MBRT) based on moments extrapolated to infinity.

[2] = cited from earlier work
[3] = cited from earlier work; remark: listed apart in the source
HIV-1 = details: read-out: therapeutically effective plasma concentration (EC50); cited from earlier work
[4] = cited from earlier work; remark: listed apart in the source

Molecule | Water solubility [2] | EC50 (HIV-1) | Oral single dose formulation (plasma half-life, hours) ([4]; oral) | log P [3] | other results
C[C@@H]1CCO[C@H]2Cn3cc(C(=O)NCc4ccc(F)cc4F)c(=O)c(O)c3C(=O)N12 [Dolutegravir] | < 95 µg/mL | 0.02 to 2.14 nM | 23 h | – | half-life ([1]; plasma): > 400 h; log P ([3]; listed as DTG): > 2
O=C1Nc2ccc(Cl)cc2[C@@](C#CC2CC2)(C(F)(F)F)O1 [Efavirenz] | 0.00855 µg/mL | – | – | 4 | –
Cc1cccc(C)c1OCC(=O)N[C@@H](Cc1ccccc1)[C@@H](O)C[C@H](Cc1ccccc1)NC(=O)[C@H](C(C)C)N1CCCNC1=O [Lopinavir, (2S)—N-[(2S,4S,5S)-5-[[2-(2,6-dimethylphenoxy)acetyl]amino]-4-hydroxy-1,6-diphenylhexan-2-yl]-3-methyl-2-(2-oxo-1,3-diazinan-1-yl)butanamide] | – | 10 to 27 nM | – | – | half-life ([1]; in vivo): 250 to 350 h; Oral single dose formulation (plasma half-life, hours) ([4]; in vivo, po): 2.5 h
Cc1cc(/C=C/C#N)cc(C)c1Nc1ccnc(Nc2ccc(C#N)cc2)n1 [Rilpivirine, 4-[[4-[4-[(E)-2-cyanoethenyl]-2,6-dimethylanilino]pyrimidin-2-yl]amino]benzonitrile] | – | 0.7 to 1.1 nM | – | 4.5 | –
CC(C)c1nc(CN(C)C(=O)N[C@H](C(=O)N[C@@H](Cc2ccccc2)C[C@H](O)[C@H](Cc2ccccc2)NC(=O)OCc2cncs2)C(C)C)cs1 [Ritonavir, 1,3-thiazol-5-ylmethyl N-[(2S,3S,5S)-3-hydroxy-5-[[(2S)-3-methyl-2-[[methyl-[(2-propan-2-yl-1,3-thiazol-4-yl)methyl]carbamoyl]amino]butanoyl]amino]-1,6-diphenylhexan-2-yl]carbamate] | – | 3.8 to 153 nM | 2.5 h | – | half-life ([1]; plasma): 250 to 350 h
C[C@H](Cn1cnc2c(N)ncnc21)OCP(=O)(O)O [Tenofovir, [(2˜{R})-1-(6-aminopurin-9-yl)propan-2-yl]oxymethylphosphonic acid] | 13000 µg/mL | 40 to 8500 nM | – | −1.6 | –
[(2˜{R})-1-(6-aminopurin-9-yl)propan-2-yl]oxymethylphosphonic acid [Tenofovir] | – | – | 8 to 17 h | – | DcNP formulation (non-human primates) (plasma half-life, hours) ([1]; DcNP formulation, non-human primates): >200 to 350 h
